This note sets out measurements from patent US10023559B2 (Hoffmann-La Roche Inc., priority 2014, dated 2018).

Experiment [1] concerns the target mouse TAAR1 (Mus musculus (Mouse), UniProt Q923Y8). Nature of the experiment: Radioligand binding assay on mouse TAAR1.
Protocol: Membrane Preparation and Radioligand Binding.
HEK-293 cells stably expressing mouse TAAR1 were maintained at 37° C. and 5% CO2 in DMEM high glucose medium, containing fetal calf serum (10%, heat inactivated for 30 min at 56° C.), penicillin/streptomycin (1%), and 375 μg/ml geneticin (Gibco). Cells were released from culture flasks using trypsin/EDTA, harvested, washed twice with ice-cold PBS (without Ca^2+ and Mg^2+), pelleted at 1,000 rpm for 5 min at 4° C., frozen and stored at −80° C. Frozen pellets were suspended in 20 ml HEPES-NaOH (20 mM, pH 7.4) containing 10 mM EDTA and homogenized with a Polytron (PT 6000, Kinematica) at 14,000 rpm for 20 s. The homogenate was centrifuged at 48,000×g for 30 min at 4° C. Subsequently, the supernatant was removed and discarded, and the pellet resuspended in 20 ml HEPES-NaOH (20 mM, pH 7.4) containing 0.1 mM EDTA using the Polytron (20 s at 14,000 rpm). This procedure was repeated and the final pellet resuspended in HEPES-NaOH containing 0.1 mM EDTA and homogenized using the Polytron. Typically, aliquots of 2 ml membrane portions were stored at −80° C. With each new membrane batch the dissociation constant (Kd) was determined via a saturation curve. […] Nonspecific binding was defined as the amount of ^3[H]—(S)-4-[(ethyl-phenyl-amino)-methyl]-4,5-dihydro-oxazol-2-ylamine bound in the presence of 10 M unlabeled ligand. All compounds were tested at a broad range of concentrations (10 pM to 10 μM) in duplicates. […] The 96 deep well plates were incubated for 1 hr at 4° C. Incubations were terminated by rapid filtration through Unifilter-96 plates (Packard Instrument Company) and glass filters GF/C (Perkin Elmer) presoaked for 1 hr in polyethylenimine (0.3%) and washed 3 times with 1 ml of cold binding buffer. After addition of 45 μl of Microscint 40 (PerkinElmer) the Unifilter-96 plate was sealed and after 1 hr the radioactivity counted using a TopCount Microplate Scintillation Counter (Packard Instrument Company).
Experiment [2] concerns the target rat TAAR1 (Rattus norvegicus (Rat), UniProt Q923Y9). Nature of the experiment: Radioligand binding assay on rat TAAR1. The following applies: read-out: Ki(μM) rat; rat TAAR1, HEK-293 membranes, second value of cell pair mouse/rat.

pKi: −log10 of the molar value.

In general, pKi refers to the negative decadic logarithm of the Ki, by convention in mol/L. Higher therefore signals a small Ki. As a reminder, the Ki is the equilibrium dissociation constant of an inhibitor or competing ligand from its target.

Sequence of mouse TAAR1 (Q923Y8 whole entry): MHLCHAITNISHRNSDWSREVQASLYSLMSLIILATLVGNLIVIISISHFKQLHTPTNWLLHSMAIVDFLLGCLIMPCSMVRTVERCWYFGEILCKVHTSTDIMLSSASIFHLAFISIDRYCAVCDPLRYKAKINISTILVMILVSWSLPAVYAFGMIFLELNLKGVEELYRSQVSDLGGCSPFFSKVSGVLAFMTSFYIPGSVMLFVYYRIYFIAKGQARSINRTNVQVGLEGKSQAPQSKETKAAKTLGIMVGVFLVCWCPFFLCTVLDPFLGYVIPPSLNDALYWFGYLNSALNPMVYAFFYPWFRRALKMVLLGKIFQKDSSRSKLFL
Sequence of rat TAAR1 (Q923Y9 whole entry): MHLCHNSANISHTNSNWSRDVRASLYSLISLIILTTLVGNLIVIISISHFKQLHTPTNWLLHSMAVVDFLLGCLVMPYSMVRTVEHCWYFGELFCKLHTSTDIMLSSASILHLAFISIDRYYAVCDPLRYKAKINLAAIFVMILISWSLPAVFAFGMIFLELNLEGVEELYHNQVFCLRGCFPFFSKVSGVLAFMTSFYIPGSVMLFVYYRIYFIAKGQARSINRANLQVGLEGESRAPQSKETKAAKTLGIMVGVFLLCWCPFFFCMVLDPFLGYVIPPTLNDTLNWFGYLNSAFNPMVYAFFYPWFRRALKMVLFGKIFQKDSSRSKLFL

Turning to `O=C(Nc1ccc(C[C@H]2CCN2)cc1)c1cnc(C(F)(F)F)nc1` [Example 80, N-[4-[[(2S)-azetidin-2-yl]methyl]phenyl]-2-(trifluoromethyl)pyrimidine-5-carboxamide], the pKi in experiment [1] was 7.57. For the same molecule, the inhibitory constant (Ki) in experiment [2] amounted to 0.026 µM.
Taken in the same sequence, the figures for `O=C(Nc1ccc(C[C@H]2CCN2)cc1)c1ccc(Cl)nc1` [Example 81, N-[4-[[(2S)-azetidin-2-yl]methyl]phenyl]-6-chloro-pyridine-3-carboxamide] were 8.39 and 0.0202 µM.
In the same order, the values of `Cc1cc(C(=O)Nc2cc(F)c(C=C3CNC3)c(F)c2)nc(C(F)(F)F)n1` [Example 82, N-(4-(azetidin-3-ylidenemethyl)-3,5-difluorophenyl)-6-methyl-2-(trifluoromethyl)pyrimidine-4-carboxamide] are 7.56 and 0.0055 µM.
In the same order, the values of `CCc1n[nH]c(C(=O)Nc2cc(F)c(C=C3CNC3)c(F)c2)c1C` [Example 83, N-(4-(azetidin-3-ylidenemethyl)-3,5-difluorophenyl)-3-ethyl-4-methyl-1H-pyrazole-5-carboxamide] are 7.78 and 0.0009 µM.
In experiment [1], `O=C(Nc1cc(F)c(C=C2CNC2)c(F)c1)c1ccc(Cl)nc1` [Example 84, N-(4-(azetidin-3-ylidenemethyl)-3,5-difluorophenyl)-6-chloronicotinamide] showed a negative logarithm of the Ki (pKi) of 8.48. Besides, in experiment [2], the Ki turned out to be 0.0014 µM.
The molecule `Cc1cc(C(=O)Nc2ccc(C=C3CNC3)c(F)c2)nc(C(F)(F)F)n1` [Example 85, N-(4-(azetidin-3-ylidenemethyl)-3-fluorophenyl)-6-methyl-2-(trifluoromethyl)pyrimidine-4-carboxamide] showed a negative-log Ki (pKi) in experiment [1] of 7.29. Moreover, in experiment [2], the Ki was found to be 0.0134 µM.
In the same order, the values of `O=C(Nc1ccc(C=C2CNC2)c(F)c1)c1ccc(Cl)nc1` [Example 86, N-(4-(azetidin-3-ylidenemethyl)-3-fluorophenyl)-6-chloronicotinamide] are 8.74 and 0.0038 µM.
Taken in the same sequence, the figures for `CCc1cc(C(=O)Nc2cc(F)c(C=C3CNC3)c(F)c2)nc(C(F)(F)F)n1` [Example 87, N-(4-(azetidin-3-ylidenemethyl)-3,5-difluorophenyl)-6-ethyl-2-(trifluoromethyl)pyrimidine-4-carboxamide] were 7.91 and 0.0024 µM.
Take `CCc1n[nH]c(C(=O)Nc2ccc(C=C3CNC3)c(F)c2)c1C` [Example 88, N-(4-(azetidin-3-ylidenemethyl)-3-fluorophenyl)-3-ethyl-4-methyl-1H-pyrazole-5-carboxamide]: the pKi in experiment [1] was 7.76. Moreover, the inhibitory constant (Ki) in experiment [2] was 0.005 µM.
`c1ccc(C[C@H]2CCN2)cc1` [Example 89, (S)-2-benzylazetidine]: in experiment [1], the pKi is 5.82. Besides, the inhibitory constant (Ki) in experiment [2] was 0.0822 µM.
In experiment [1], `F[C@H]1CN[C@H]1Cc1ccccc1` [Example 90, (2S,3S)-2-benzyl-3-fluoroazetidine] had a pKi of 5.36. Besides, the Ki in experiment [2] is 0.274 µM.
In the same order, the values of `F[C@@H]1CN[C@H]1Cc1ccccc1` [Example 91, (2S,3R)-2-benzyl-3-fluoroazetidine] are 5.97 and 0.149 µM.
Taken in the same sequence, the figures for `F[C@@H]1CN[C@@H]1Cc1ccccc1` [Example 92, (2R,3R)-2-benzyl-3-fluoroazetidine] were 6.61 and 0.607 µM.
In the same order, the values of `F[C@H]1CN[C@@H]1Cc1ccccc1` [Example 93, (2R,3S)-2-benzyl-3-fluoroazetidine] are 5.89 and 2.09 µM.
In the case of `CO[C@H]1CN[C@H]1Cc1ccccc1` [Example 94, (2S,3S)-2-benzyl-3-methoxyazetidine], the pKi in experiment [1] is 5.39. In addition, the inhibition constant Ki in experiment [2] is 0.767 µM.
`CO[C@@H]1CN[C@H]1Cc1ccccc1` [Example 95, (2S,3R)-2-benzyl-3-methoxyazetidine]: in experiment [1], the pKi was 5.56. The Ki in experiment [2] is 0.648 µM.
Taken in the same sequence, the figures for `CO[C@@H]1CN[C@@H]1Cc1ccccc1` [Example 100, (2R,3R)-2-benzyl-3-methoxyazetidine] were 6.50 and 0.151 µM.
